Measurements from publication PMC3891837 (American journal of obstetrics and gynecology, 2013).
Where two headings read alike, the source gives them in different places.

Legend:
[1] = design: species or system human
[2] = design: species or system human; remark: listed apart in the source
[3] = tested on: efflux transporters (P-gp, MRP, BCRP); format: biochemical; conditions: human, inside-out vesicles from placental brush border membranes, pH 7.4, probe [3H]-paclitaxel, 40 nM
[4] = tested on: efflux transporters (P-gp, MRP, BCRP); format: biochemical; conditions: human, inside-out vesicles from placental brush border membranes, pH 7.4, probe [3H]-estrone sulfate, 100 nM

| normalized transfer (Clearance index) to antipyrine ([1]; Fetal-to-Maternal direction, p < 0.01 vs Maternal to Fetal) | concentration in the maternal circuit at the end of perfusion ([1]; F→M, 4 hours of perfusion, initial donor concentration 50 ng/mL) [ng/mL] | maternal/fetal concentration ratio ([1]; F→M, end of 4 hours of perfusion) | time to appearance in the maternal (recipient) circuit ([1]; F→M, initial donor concentration 50 ng/mL) | normalized transfer (Clearance index) to antipyrine ([2]; Maternal-to-Fetal direction) | concentration in the fetal circuit at the end of the experimental period ([2]; M→F, 4-hour perfusion, initial donor concentration 50 ng/mL) [ng/mL] | drug remained in the maternal circuit ([2]; M→F, end of 4-hour perfusion) [%] | drug retained by the tissue ([2]; M→F, end of 4-hour perfusion) [%] | drug transferred to the fetal circuit ([2]; M→F, end of 4-hour perfusion) [%] | fetal/maternal concentration ratio ([2]; M→F, end of 4-hour perfusion) | appearance in the fetal circuit after start of perfusion ([2]; M→F, initial donor concentration 50 ng/mL) | IC50 at 1 min [3] [µM] | IC50 at 3 min [4] [µM] | Compound | transplacental transfer of antipyrine ([2]; marker compound, 20 μg/mL, dual perfusion, 4 h) |
| --- | --- | --- | --- | --- | --- | --- | --- | --- | --- | --- | --- | --- | --- | --- |
| 0.48 ± 0.07 | 6.4 ± 1.0 | 0.19 ± 0.03 | less than 5 minutes | 0.36 ± 0.07 | 8.8 ± 1.8 | 68 ± 5 | 14 ± 5 | 18 ± 4 | 0.26 ± 0.06 | within the initial five minutes | 11 | 30 | CC[C@H](C)C(=O)O[C@H]1C[C@H](O)C=C2C=C[C@H](C)[C@H](CC[C@@H](O)C[C@@H](O)CC(=O)O)[C@H]21 [Pravastatin, pravastatin] | – |
| – | – | – | – | – | – | – | – | – | – | – | – | – | Cc1cc(=O)n(-c2ccccc2)n1C [antipyrine] | approximately 50% |
